ChEMBL document CHEMBL1821695, “Tetrazine-trans-cyclooctene ligation for the rapid construction of integrin αvβ₃ targeted PET tracer based on a cyclic RGD peptide” (Bioorg Med Chem Lett, 2011)

How the values were obtained:
[1] = target: Integrin alpha-V/beta-3 (Homo sapiens) (UniProt P05106+P06756); assay: Displacement of [125]I-echistatin from alphaVbeta3 integrin expressed in human U87MG cells by competitive binding assay; format: cell-based; conditions: U-87MG ATCC
[2] = test system: Mus musculus; assay: Biodistribution in tumor of athymic nude mouse bearing U87MG cells after 2 hrs co-injecting with 10 mg/kg of c(RGDyK) by micro PET scan method; format: ADME, organism-based, Neoplasm, U-87MG ATCC; set-up: dose 10 mg/kg; conditions: in vivo
[3] = test system: Mus musculus; assay: Biodistribution in tumor of athymic nude mouse bearing U87MG cells at 3.7 MBq, iv after 2 hrs by micro PET scan method; format: ADME, organism-based, Neoplasm, U-87MG ATCC; conditions: in vivo
[4] = test system: Mus musculus; assay: Biodistribution in abdomen of athymic nude mouse bearing U87MG cells at 3.7 MBq, iv upto 4 hrs postinjection by micro PET scan method; format: ADME, organism-based, U-87MG ATCC; conditions: in vivo
[5] = test system: Mus musculus; assay: Biodistribution in tumor of athymic nude mouse bearing U87MG cells after 4 hrs co-injecting with 10 mg/kg of c(RGDyK) by micro PET scan method; format: ADME, organism-based, Neoplasm, U-87MG ATCC; set-up: dose 10 mg/kg; conditions: in vivo
[6] = test system: Mus musculus; assay: Biodistribution in tumor of athymic nude mouse bearing U87MG cells after 0.5 hrs co-injecting with 10 mg/kg of c(RGDyK) by micro PET scan method; format: ADME, organism-based, Neoplasm, U-87MG ATCC; set-up: dose 10 mg/kg; conditions: in vivo
[7] = Chemical stability of the compound in phosphate buffer saline in presence of 5% EtOH after 6 hrs by Radio-HPLC analysis; format: physicochemical; conditions: phosphate buffered saline with 5% EtOH; read-out: Stability
[8] = test system: Mus musculus; assay: Biodistribution in tumor of athymic nude mouse bearing U87MG cells at 3.7 MBq, iv after 4 hrs by micro PET scan method; format: ADME, organism-based, Neoplasm, U-87MG ATCC; conditions: in vivo
[9] = test system: Mus musculus; assay: Biodistribution in tumor of athymic nude mouse bearing U87MG cells at 3.7 MBq, iv after 1 hr by micro PET scan method; format: ADME, organism-based, Neoplasm, U-87MG ATCC; conditions: in vivo
[10] = test system: Mus musculus; assay: Biodistribution in tumor of athymic nude mouse bearing U87MG cells after 1 hr co-injecting with 10 mg/kg of c(RGDyK) by micro PET scan method; format: ADME, organism-based, Neoplasm, U-87MG ATCC; set-up: dose 10 mg/kg; conditions: in vivo
[11] = test system: Mus musculus; assay: Biodistribution in tumor of athymic nude mouse bearing U87MG cells at 3.7 MBq, iv after 0.5 hrs by micro PET scan method; format: ADME, organism-based, Neoplasm, U-87MG ATCC; conditions: in vivo

Activity [1] | Drug uptake [2] | Drug uptake [3] | Drug uptake [4] | Drug uptake [5] | Drug uptake [6] | remaining at 6 h [7] | Drug uptake [8] | Drug uptake [9] | Drug uptake [10] | Drug uptake [11] | Structure (SMILES)
Dose-dependent effect |  |  |  |  |  |  |  |  |  |  | N=C(N)NCCC[C@H]1NC(=O)CNC(=O)[C@@H](CC(=O)O)NC(=O)[C@H](Cc2ccc(O)cc2)NC(=O)[C@@H](CCCCNC(=O)CCCC(=O)Nc2ccc(C3=NN=C(c4ccccn4)[C@@H]4CCC[C@@H](OCCF)CC[C@@H]34)nc2)NC1=O
Dose-dependent effect |  |  |  |  |  |  |  |  |  |  | N=C(N)NCCC[C@H]1NC(=O)CNC(=O)[C@@H](CC(=O)O)NC(=O)[C@H](Cc2ccc(O)cc2)NC(=O)[C@@H](CCCCN)NC1=O
 | 0.6 % ID/g | 4.2 % ID/g | Active | 0.4 % ID/g | 1.4 % ID/g | > 95% | 2.7 % ID/g | 4.4 % ID/g | 1 % ID/g | 4.6 % ID/g | N=C(N)NCCC[C@H]1NC(=O)CNC(=O)[C@@H](CC(=O)O)NC(=O)[C@H](Cc2ccc(O)cc2)NC(=O)[C@@H](CCCCNC(=O)CCCC(=O)Nc2ccc(C3=NN=C(c4ccccn4)[C@@H]4CCC[C@@H](OCC[18F])CC[C@@H]34)nc2)NC1=O
